{
  "source": "patent US20060211744A1",
  "about": "“3-Pyridinecarboxamide reduces nerve degeneration” (Children's Medical Center, priority 2005, published 2006)",
  "key": {"[1]": {"tested_on": "experimental autoimmune encephalomyelitis (EAE) mice", "type": "in vivo", "from_the_text": "EAE is an inflammatory, demyelinating disease that can be induced by immunizing animals against myelin antigens, and is an accepted animal model for multiple sclerosis (MS) as it has similarities based on both the histopathology and the clinical course of the affected animals. In methods adapted from Lo et al. (J Neurophysiol. 2003 November;90(5):3566-71) we examine the effect of nicotinamide on axonal degeneration within the dorsal columns (cuneate fasciculus) and dorsal corticospinal tracts of the spinal cord.\nInduction of EAE. Experiments are carried out in accordance with National Institutes of Health guidelines for the use of laboratory animals. C57/BL6 mice 6-10 wk of age are injected subcutaneously with 200 μl of an emulsion of 300 μg of rat myelin oligodendrocyte glycoprotein (MOG) 35-55 peptide (Keck Biotechnology Center, Yale University) in incomplete Freund's adjuvant (IFA, Sigma, St. Louis, Mo.) supplemented with 250-500 μg of Mycobacterium tuberculosis H37Ra (Difco, Detroit, Mich.). The MOG injection, with mycobacterium supplemented IFA, is repeated in the opposite flank 1 wk later. The mice also receive an injection of 250-500 ng pertussis toxin (Sigma) in 200 μl PBS ip immediately after the first immunization with MOG and then again 48 h later.\nNicotinamide treatment. Beginning on day 10 after the initial MOG injection, control and EAE-induced mice are fed pelleted mice chow incorporating nicotinamide (Sigma) to achieve an average daily consumption of 500 mg/kg nicotinamide. A separate group of EAE mice are fed the identical standard mice chow not containing nicotinamide. Serum nicotinamide levels are measured by HPLC (Chatzimichalakis et al, J Sep Sci. (2004) 27:1181-8) from two mice in each group on day 14 and on the day of either perfusion (days 27-28) or electrophysiological study (days 24-30).\nMice are observed daily for clinical signs and scored on a 0-6 scale, with 0.5 gradations for intermediate scores, as follows: 0, normal without clinical signs; 1, flaccid tail; 2, abnormal righting reflex; 3, partial hindlimb paralysis; 4, complete hindlimb paralysis; 5, moribund; and 6, death.\nElectrophysiological recordings. Fourteen adult male C57/BL6 mice are used for assessing spinal cord conduction. Untreated EAE (n=6) and nicotinamide-treated EAE (n=4) mice are studied between days 24 and 30 and age-matched nicotinamide-treated mice (n=4) are used as controls. Mice are anesthetized with halothane, and deep anesthesia is maintained with 1.1% halothane through a tracheal cannula by artificial ventilation (75-80 strokes/min, 0.7 ml/stroke) and verified by the absence of a withdrawal reflex to noxious peripheral pinch. Heartbeats (˜360 beats/min) and body temperature are carefully monitored. Mice are fixed in a stereotaxic apparatus (Kopf Instruments). A midline incision is made through the skin, a laminectomy is performed, and the dura is carefully cut to expose the lower thoracic and lumbar spinal cord regions. Silver wire electrodes (0.01-in diam, A-M Systems) insulated except at the tips are used for stimulation of dorsal column axons at L4-5 and recording of compound action potentials (CAP) at T11-12. Using stereotaxic measurements, the electrodes are positioned 8 mm apart at the surface of the midline spinal cord. Pancuronium bromide (0.3 mg/kg, Sigma) is injected ip to prevent further muscular contractions throughout the experiment. The signal from the recording electrode is amplified with filters set at 300-3,000 Hz (Dam 80, WPI) and collected (CED 1401, Cambridge Electronic Design), and a computer is used for data analysis (Spike 2 program, Cambridge Electronic Design). Single-current pulses (0.05 ms) are applied through a stimulus isolation unit (A365, WPI, and Master-8, AMPI) in increments (0.2, 0.3, 0.6, 0.8, and 1 mA). The amplitude of CAP is calculated as the value between the positive and negative peaks of the biphasic wave. […]"}, "[2]": {"tested_on": "cultured hippocampal neurons", "test": "Synaptic loss and process degeneration in cultured hippocampal neurons (dominant-negative Nmnat1)", "type": "cell-based", "details": "50-200 μM, up to 72 hr", "from_the_text": "We next attempted to examine whether decreasing NAD levels can induce similar “dying-back” axon degeneration in neurons with established synaptic connections. Such experiments might allow us to assess whether the degenerative processes in axons and other neuronal structures, including synaptic structures and dendritic processes, share similar mechanisms. To do this, we introduced both wild type and dominant negative Nmnat1 into cultured hippocampal neurons at 20 days in vitro (DIV 20), when their synaptic connections have formed and matured (Brewer et al. 1993), and examined their effects on axons as well as dendrites and synapses. As a conventional approach to visualize these neuronal structures, we also co-infected the hippocampal neurons with HSV expressing YFP. […] Moreover, neuronal NAD levels declined from 24-48 hr post-infection with viruses expressing dominant-negative Nmnat1 but not wild type Nmnat1 or YFP. Thus, we decided to focus our analysis on the first 60 hours post-infection.\nTo monitor changes in synaptic structures, we co-infected DIV20 neurons with HSV expressing YFP and wild type or the mutant Nmnat1, and quantified both spine density and the length and branching of axons and dendrites. As the density of dendritic spines has been considered a reliable indicator for synapse number (reviewed by Hering and Sheng, 2001), we performed high-resolution YFP imaging in neurons co-expressing YFP and Nmnat1 proteins at the indicated time points post-infection to measure the spine densities in these co-infected neurons. Dendrite length and branching patterns were analyzed using Sholl's method of regularly spaced concentric circles centered on the neuronal soma (Sholl, 1953). […]\nIn the experiments described above, we also performed immunostaining with antibodies against the presynaptic marker bassoon, and found a decrease of positively-stained synaptic structures. However, due to the complex morphology of the axons that makes it extremely difficult to quantify the axonal length in DIV20 hippocampal neurons, we […]. […]"}, "[3]": {"details": "nicotinamide-treated EAE, days 24-30"}},
  "data": [
    {"smiles": "NC(=O)c1cccnc1", "note": "[nicotinamide, 3-pyridinecarboxamide]", "values": [
      {"measurement": "effect on dorsal corticospinal column and dorsal column (cuneate fasciculus) axons", "setting": "[1]; EAE mice, 27-28 days", "value": "significant protective effect"},
      {"measurement": "clinical course versus untreated EAE mice", "setting": "[1]; EAE mice, chow 500 mg/kg daily from day 10", "value": "less severe clinical course"},
      {"measurement": "clinical score (0-6 scale)", "setting": "[1]; EAE mice, chow 500 mg/kg daily from day 10, day 27-28 (untreated EAE 3-4)", "value": "1-2"},
      {"measurement": "clinical signs in nicotinamide-treated control mice", "setting": "[1]; mouse, in vivo", "value": "do not display any pathological clinical signs"},
      {"measurement": "difference in density of neurofilament-labeled axons, untreated versus nicotinamide-treated controls", "setting": "[1]; mouse, in vivo", "value": "not significant"},
      {"measurement": "average CAP amplitude and area versus nicotinamide-treated control group", "setting": "[1]; [3]", "value": "not significantly different"},
      {"measurement": "conduction velocity", "setting": "[1]; [3]", "value": "maintained close to normal levels"},
      {"measurement": "dendritic spine quantity or structure, compound alone", "setting": "[2]", "value": "did not induce significant changes"}
    ]}
  ]
}
